Experimental data from patent US20200384188A1, “SYSTEMS, DEVICES, FORMULATIONS AND METHODS FOR CONTROLLED DRUG DELIVERY” (priority 2017, published 2020).
Several values for one entry are separate records, joined by “and”; a condition that tells them apart may be missing. Equal entries are not always repeated.

Assays:
rats [1] = assay: Signs of anesthesia recorded during the rat pain tests; type: in vivo; details: 50 mg/kg sc via insulin pump
Protocol: Signs of anesthesia were recorded.
(§1) Day of Dosing: On the day of dosing, each animal was administered a 0.1 mL 20% suspension of Brewers Yeast subcutaneously into the sub-plantar of the right hind paw at approximately 180 minutes prior to ketamine administration. Immediately prior to ketamine administration (Group 4), 15 and 30 minutes and 1, 2, and 4 hours post administration of ketamine, each animal was assessed for a response to increasing pressure on both hind paws (Group 1 used right hind paw, Group 4 used both hind paws), using the analgesy meter. Signs of anesthesia were recorded.

[2] = Minipig pharmacokinetics study (BB-1802), single subcutaneous infusion via insulin pump, plasma LC-MS/MS; details: for half-life / Tmax: Gottingen, minipig, plasma, sc; for Tmax: mean Tmax
Protocol: The purpose of this study was to determine the pharmacokinetics of ketamine after a single subcutaneous infusion dose to minipigs.
Dose Administration: In each phase, animals received a single subcutaneous infusion (up to 18 hours) via insulin pump (Medtronic MiniMed Paradigm® Insulin Pump). The infusion pump was programmed in accordance with a Study Specific Procedure, and the infusion was continuously monitored for the duration of the dose. […] The pump was inspected, re-secured to the animal, and the dose continued.
For each phase, blood (approximately 2 mL) was collected via jugular vein catheter into tubes containing K3EDTA from each animal predose and at approximately 0.083, 0.25, 0.5, 1, 2, 4, 8, 9 (Phases 1 through 3 only), 10 (Phases lthrough 3 only), 12, 15 (Phases 4 and 5 only), 18 (Phases 4 and 5 only), 20 (Phases 4 and 5 only), 22 (Phases 4 and 5 only), and 24 hours postdose, with the following exceptions in Phase 3 for Animal 50004 (Group 1 male). […] Times were based on the start of the infusion.
Plasma samples were analyzed for concentrations of ketamine using an established liquid chromatography/mass spectrometry (LC-MS/MS) method.
Noncompartmental analysis (1) was applied to the individual plasma ketamine concentration data for males and females. The following parameters were estimated whenever possible:
Nominal doses and sampling times were used. […] Embedded zeros were excluded from pharmacokinetic analysis.

male Sprague-Dawley rats [3] = details: rat, in vivo
[4] = system: rats (Group 1 Sprague-Dawley, Group 4 Han Wister); assay: Randall-Selitto test (Brewers Yeast-inflamed hind paw, analgesy meter); type: in vivo, rat; details: for Force (g) applied to the inflamed (right) paw, individual animals / Force (g) applied to the inflamed (right) paw, mean / % change from baseline, force on inflamed (right) paw / % change from baseline, force on untreated (left) paw / Force (g) applied, Left paw, individual animals / Force (g) applied, Right Paw (inflamed), individual animals / Force (g) applied to the untreated (left) paw, mean: 50 mg/kg sc; for Force (g) applied to the inflamed (right) paw, individual animals: animals R0001-R0006; for Force (g) applied to the inflamed (right) paw, individual animals / Force (g) applied, Left paw, individual animals / Force (g) applied, Right Paw (inflamed), individual animals: 50 mg/kg
Description: The Randall Selitto test is a tool to assess the response thresholds to mechanical pressure stimulation following induction of a hyperalgesic state by injection of an inflammatory agent and is considered a measure of mechanical hyperalgesia (Randall and Selitto, 1957). This involves application of an increasing force to the surface of the paw until withdrawal or vocalization occurs. The test can produce results similar to decreases on pressure pain thresholds observed in clinical conditions, such as fibromyalgia, myofascial pain, or osteoarthritis (Arendt-Nielsen et al., 2010; Bennett, 2007; Finan et al., 2013; Hsu et al., 2010). Centrally and peripherally acting effects can be detected using this model, for example, opioids increase the mechanical threshold to the normal and inflamed paw, whereas nonsteroidal anti-inflammatory drugs are only effective in the inflamed paw.
(§2) Eighteen male Sprague-Dawley rats were obtained from Charles River, Margate, United Kingdom, and were used for dosing. Animals weighed between 319 and 419 g on the day of dosing. Eight male Han Wister rats were obtained from Charles River, Margate, United Kingdom and used for Group 4. Animals weighed between 381 and 504 g on the day of dosing. The animals were assessed according to Table 1.
(§3) Animals were dosed subcutaneously via a motorized insulin pump.
The threshold of a pain response to increasing pressure was measured using an analgesy meter (Ugo Basile, Italy). The animal was gently held by a competent operator, and the hind paw of the animal was positioned over a convex surface (a cone-shaped pusher). A gradually increasing pressure (g) was applied to the upper surface of the paw. The force was continuously monitored by a pointer moving along a linear scale and was stopped by depression of a foot pedal when the animal struggled. A cut-off value of 300 g was adopted (based on available literature and experience).
Pre-dose Phase: The pressure pain threshold of each animal was tested on two occasions (once in the morning and once in the afternoon). This allowed animals to acclimate to the procedure.
as §1

Gottingen Minipigs = assay: Minipig animal observations and necropsy; type: in vivo, Gottingen Minipig; details: Animals S0001 and S0004, Group 1 males
Description: All animals appeared healthy prior to dosing and throughout the duration of the study, with the following observations noted.

male Sprague-Dawley rats [5] = assay: Writhing test (acetic acid-induced abdominal spasm); type: in vivo, rat
Protocol: In the abdominal spasm (acetic acid-induced writhing) test, acetic acid is injected into the peritoneal cavity where it directly activates nociceptors and results in an abdominal writhing response. This writhing response is characterized by contraction of abdominal muscles followed by an extension of the hind limbs (Collier et al., 1968). This pain-behavior is considered reflexive and evidence of visceral pain associated with visceral chemoreceptors (Hammond, 1989). […] It is widely accepted that this model can be used as a screening method to determine the effects of drugs on inflammatory induced nociception (Vogel et al., 1997; Chiba et al., 2008). Although it can be used as a screening tool, it is unclear as to which clinical conditions the use of a chemical irritant represents (Gregory et al., 2013).
as §2, §3
At 1 hour post administration of ketamine, each animal was administered a 1 mL intraperitoneal injection of 1% acetic acid. Animals were immediately placed into individual observation chambers, and the number of abdominal spasms elicited over the subsequent 25-minute period was recorded.
Comparisons were made to background data.

rats [6] = details: 50 mg/kg; cited from earlier work

CNC1(c2ccccc2Cl)CCCCC1=O (centres unmarked) [ketamine]
Signs of anesthesia (rats [1]): reduced righting reflex, body tone, and ataxia up to 1 hour post-dose
half-life ([2]; 8 mg/kg): 5.76 h
half-life ([2]; 12 mg/kg): 5 h
half-life ([2]; 18 mg/kg): 3.12 h
mean concentration values measurable through (post the start of infusion) ([2]; Phase 1): 12 h
mean Css ([2]; Phase 5: 18 mg/kg, 1 mg/kg/hr, 18-hour SC infusion): 700 ng/mL
steady-state, in words ([2]; Phases 1 through 4): did not appear to reach a steady-state
mean concentration values measurable through (post the start of infusion) ([2]; Phases 3 through 5): 24 h
time to detectible plasma ketamine levels after initiating subcutaneous infusion ([2]; all animals): ≤ 5 min
exposure to ketamine against dose level ([2]; dose level from 4 to 18 mg/kg): generally increased with the increase in dose level
Tmax ([2]; female, 18 mg/kg, Phases 4 and 5: 18 mg/kg, 1 mg/kg/hr, 18-hour SC infusion, female): 13.5 h
Tmax ([2]; male, 8 mg/kg, Phase 2: 8 mg/kg, 1 mg/kg/hr, 8-hour SC infusion, males): 4.5 h
Tmax ([2]; male, 12 mg/kg, Phase 3: 12 mg/kg, 1.5 mg/kg/hr, 8-hour SC infusion, males): 2.04 h
dose proportionality of the increases in mean Cmax and AUC0-24 ([2]; males, dose level from 4 to 8 mg/kg): less than dose proportional
dose proportionality of the increases in mean Cmax and AUC0-24 ([2]; males, dose level from 8 to 12 mg/kg): greater than dose proportional
Time (s) taken for response, individual animals (male Sprague-Dawley rats [3]): 4.2 s (2×) and 5.2 s (3×) and 5.9 s and 5.1 s and 7.7 s and 6.2 s (2×) and 4.4 s and 7.0 s and 7.5 s and 5.5 s and 6.4 s (2×) and 7.4 s (3×) and 6.5 s (2×) and 3.5 s and 5.8 s (3×) and 4.3 s and 4.9 s and 6.1 s and 5.7 s and 7.6 s
Time (s) taken for response, mean (male Sprague-Dawley rats [3]): 5.6 s and 5.9 s and 6.3 s
group mean reaction time (longest) (male Sprague-Dawley rats [3]): 6.3 s
group mean reaction time (shortest) (male Sprague-Dawley rats [3]): 5.6 s
latency of tail flick, in words (male Sprague-Dawley rats [3]): slight increase in latency of tail flick at all post-dose time points
magnitude of the increase in time taken for pain to be perceived (male Sprague-Dawley rats [3]): 1.1 s
maximum effect, increase in time to tail flick (male Sprague-Dawley rats [3]): 21.4%
Force (g) applied to the inflamed (right) paw, individual animals ([4]; Group 1, 0.25 h): 90 g (2×) and 20 g and 40 g (2×) and 120 g
Force (g) applied to the inflamed (right) paw, mean ([4]; Group 1, 0.25 h, n=6): 153.3 g
Force (g) applied to the inflamed (right) paw, individual animals ([4]; Group 1, 0.5 h): 100 g and 130 g and 80 g and 170 g and 120 g and 40 g
Force (g) applied to the inflamed (right) paw, mean ([4]; Group 1, 0.5 h, n=6): 66.7 g
Force (g) applied to the inflamed (right) paw, individual animals ([4]; Group 1, 1 h): 130 g and 120 g (2×) and 80 g (2×) and 60 g
Force (g) applied to the inflamed (right) paw, mean ([4]; Group 1, 1 h, n=6): 106.7 g
Force (g) applied to the inflamed (right) paw, individual animals ([4]; Group 1, 2 h): 60 g and 110 g and 50 g and 200 g and 120 g and 140 g
Force (g) applied to the inflamed (right) paw, mean ([4]; Group 1, 2 h, n=6): 98.3 g
Force (g) applied to the inflamed (right) paw, individual animals ([4]; Group 1, 4 h): 120 g (2×) and 110 g and 140 g and 90 g (2×)
Force (g) applied to the inflamed (right) paw, mean ([4]; Group 1, 4 h, n=6): 113.3 g
pressure required to initiate a response, in words ([4]; Group 1, 0.5 to 2 hours post-dose versus the 15 minute time point, majority of animals): increase in pressure required to initiate a response
% change from baseline, force on inflamed (right) paw ([4]; Group 4, 0.25 h): −5.7%
% change from baseline, force on untreated (left) paw ([4]; Group 4, 0.25 h): −17.0%
Force (g) applied, Left paw, individual animals ([4]; Group 4, 0.25 h): 60 g and 100 g and 180 g and 90 g and 80 g and 130 g and 110 g and 30 g
Force (g) applied, Right Paw (inflamed), individual animals ([4]; Group 4, 0.25 h): 10 g and 30 g and 80 g and 50 g and 40 g and 60 g (2×) and 0 g
Force (g) applied to the inflamed (right) paw, mean ([4]; Group 4, 0.25 h, n=8): 41.3 g
Force (g) applied to the untreated (left) paw, mean ([4]; Group 4, 0.25 h, n=8): 97.5 g
% change from baseline, force on inflamed (right) paw ([4]; Group 4, 0.5 h): 34.3%
% change from baseline, force on untreated (left) paw ([4]; Group 4, 0.5 h): −9.6%
Force (g) applied, Left paw, individual animals ([4]; Group 4, 0.5 h): 120 g (2×) and 130 g (2×) and 150 g and 90 g and 70 g and 40 g
Force (g) applied, Right Paw (inflamed), individual animals ([4]; Group 4, 0.5 h): 40 g (2×) and 50 g and 80 g and 90 g and 70 g and 100 g and 0 g
Force (g) applied to the inflamed (right) paw, mean ([4]; Group 4, 0.5 h, n=8): 58.8 g
Force (g) applied to the untreated (left) paw, mean ([4]; Group 4, 0.5 h, n=8): 106.3 g
% change from baseline, force on inflamed (right) paw ([4]; Group 4, 1 h): 65.7%
% change from baseline, force on untreated (left) paw ([4]; Group 4, 1 h): −10.6%
Force (g) applied, Left paw, individual animals ([4]; Group 4, 1 h): 80 g (3×) and 160 g and 100 g (2×) and 200 g and 40 g
Force (g) applied, Right Paw (inflamed), individual animals ([4]; Group 4, 1 h): 80 g and 60 g and 140 g and 40 g and 70 g (2×) and 90 g and 30 g
Force (g) applied to the inflamed (right) paw, mean ([4]; Group 4, 1 h, n=8): 72.5 g
Force (g) applied to the untreated (left) paw, mean ([4]; Group 4, 1 h, n=8): 105.0 g
% change from baseline, force on inflamed (right) paw ([4]; Group 4, 2 h): 165.7%
% change from baseline, force on untreated (left) paw ([4]; Group 4, 2 h): −24.5%
Force (g) applied, Left paw, individual animals ([4]; Group 4, 2 h): 100 g (2×) and 70 g and 130 g and 80 g (2×) and 90 g and 60 g
Force (g) applied, Right Paw (inflamed), individual animals ([4]; Group 4, 2 h): 180 g and 80 g (2×) and 240 g and 70 g (2×) and 120 g and 90 g
Force (g) applied to the inflamed (right) paw, mean ([4]; Group 4, 2 h, n=8): 116.3 g
Force (g) applied to the untreated (left) paw, mean ([4]; Group 4, 2 h, n=8): 88.8 g
% change from baseline, force on inflamed (right) paw ([4]; Group 4, 4 h): 38.45%
% change from baseline, force on untreated (left) paw ([4]; Group 4, 4 h): 14.9%
Force (g) applied, Left paw, individual animals ([4]; Group 4, 4 h): 130 g (2×) and 110 g (3×) and 220 g and 90 g and 180 g
Force (g) applied, Right Paw (inflamed), individual animals ([4]; Group 4, 4 h): 60 g and 90 g and 170 g and 100 g (2×) and 80 g and 150 g and 70 g
Force (g) applied to the inflamed (right) paw, mean ([4]; Group 4, 4 h, n=8): 102.5 g
Force (g) applied to the untreated (left) paw, mean ([4]; Group 4, 4 h, n=8): 135.0 g
pressure required in the treated (right) paw at 15 minutes post-dose, in words ([4]; Group 4, 15 minutes post-dose): slight decrease
pressure required to initiate a response in the treated (right) paw, in words ([4]; Group 4, between 0.5 and 2 hours post-dose compared to pre-dose, time dependent): increase in pressure required to initiate a response
force applied to the untreated (left) paw, in words ([4]; Group 4, throughout the data collection): remained comparable to pre-dose
relation of adverse effects (euthanized animals, necropsy) to the test article (Gottingen Minipigs): not test article related
Number of acetic acid-induced Abdominal Spasms, individual animals (male Sprague-Dawley rats [5]; 50 mg/kg sc, 1 hour after ketamine, animals R0201-R0206): 0 and 4 and 3 and 5 and 1 and 8
reduction of elicited spasms from baseline values (male Sprague-Dawley rats [5]; ketamine infusion versus baseline of 29/25 min): 86%
number of elicited spasms, average (male Sprague-Dawley rats [5]; ketamine infusion, baseline 29/25 min): 4 /25 min
relief of evoked pain 24 hours after administration (rats [6]): no relief of evoked pain
